Data from PMC8596765 (Clinical Pharmacology in Drug Development, 2021).
“Also recorded” adds a separate entry of the source. Read-outs that look alike come from different tables or passages of the source.

What was measured:
[1] = type: in vivo, human (healthy subjects)
Safety monitoring = type: in vivo, human (healthy subjects); conditions: for Tolerability: doses administered alone or in combination, healthy subjects
[2] = cited from earlier work
[3] = type: in vivo, human (healthy subjects); conditions: for CL/F: N = 12, mean ± SD
[4] = type: in vivo, human (healthy subjects); conditions: for CL/F / Cmax: N = 24, mean ± SD
OATP1B = assay: In vivo transporter inhibition by upadacitinib inferred from statin exposures; design: species or system human (healthy subjects); conditions: upadacitinib 30 mg once daily; no increase in rosuvastatin or atorvastatin exposures
BCRP [5] = target: T1, BCRP (Homo sapiens, UniProt Q9UNQ0); assay: as above; design: species or system human (healthy subjects); conditions: upadacitinib 30 mg once daily; no increase in rosuvastatin or atorvastatin exposures
T1 sequence (Q9UNQ0 1-655): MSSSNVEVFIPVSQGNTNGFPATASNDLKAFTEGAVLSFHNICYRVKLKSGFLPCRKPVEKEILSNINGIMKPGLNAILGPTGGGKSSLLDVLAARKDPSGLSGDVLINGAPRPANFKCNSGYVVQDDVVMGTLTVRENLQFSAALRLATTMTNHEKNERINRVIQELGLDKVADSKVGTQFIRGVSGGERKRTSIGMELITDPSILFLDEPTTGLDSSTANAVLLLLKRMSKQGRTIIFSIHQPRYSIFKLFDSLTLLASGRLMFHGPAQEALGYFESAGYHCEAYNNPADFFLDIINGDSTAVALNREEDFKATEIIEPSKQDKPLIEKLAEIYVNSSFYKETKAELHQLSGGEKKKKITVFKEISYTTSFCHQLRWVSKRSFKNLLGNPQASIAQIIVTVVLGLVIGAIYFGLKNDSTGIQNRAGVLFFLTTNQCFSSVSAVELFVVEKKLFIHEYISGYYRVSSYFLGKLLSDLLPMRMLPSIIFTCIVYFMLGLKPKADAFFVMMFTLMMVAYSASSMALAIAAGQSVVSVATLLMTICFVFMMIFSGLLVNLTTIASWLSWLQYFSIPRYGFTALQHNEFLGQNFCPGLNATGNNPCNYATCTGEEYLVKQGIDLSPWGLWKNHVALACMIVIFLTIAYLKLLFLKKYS

CYP1A2 = conditions: following upadacitinib dosing in the cocktail drug interaction study; cited from earlier work
CYP2C9 = conditions: following upadacitinib dosing in the cocktail drug interaction study; cited from earlier work
CYP2C19 = conditions: following upadacitinib dosing in the cocktail drug interaction study; cited from earlier work
CYP2D6 = conditions: following upadacitinib dosing in the cocktail drug interaction study; cited from earlier work
P‐glycoprotein = conditions: in vitro assessments; cited from earlier work
[6] = system: breast cancer resistance protein (BCRP); conditions: in vitro assessments; cited from earlier work
BCRP [7] = conditions: in vitro assessments, at clinically relevant concentrations; cited from earlier work
[8] = system: organic anion transporting polypeptide (OATP) 1B1; conditions: in vitro assessments, at clinically relevant concentrations; cited from earlier work
[9] = cited from earlier work; remark: listed apart in the source
CYP3A = conditions: upadacitinib 30 mg once daily, healthy subjects; cited from earlier work
[10] = oral contraceptives, CYP3A substrates; cited from earlier work
HMG‐CoA reductase = conditions: cited from earlier work
[11] = rosuvastatin 5 mg, upadacitinib 30 mg once daily
[12] = upadacitinib 30 mg once daily at steady state
[13] = part 2, period 2 day 6, upadacitinib 30 mg once daily alone
[14] = part 2, period 2 day 7, upadacitinib 30 mg once daily + atorvastatin 10 mg single dose
[15] = atorvastatin 10 mg + upadacitinib 30 mg once daily, period 2 day 7, N = 24
[16] = atorvastatin 10 mg alone, period 1 day 1, N = 24
[17] = atorvastatin 10 mg alone, period 1 day 1, N = 24, mean ± SD

## CC(C)c1nc(N(C)S(C)(=O)=O)nc(-c2ccc(F)cc2)c1/C=C/[C@@H](O)C[C@@H](O)CC(=O)O [rosuvastatin]
[1]; human, plasma, oral, 5 mg
  AUC(0-inf): 22.8 ± 6.69 ng·h/mL
  AUC(0-t): 17.5 ± 6.53 ng·h/mL
[1]; human, plasma, oral, 5 mg, t1/2 (arithmetic mean ± standard deviation), rosuvastatin 5 mg alone, period 1 day 1, N = 12
  half-life: 27.5 h
[1]; human, plasma, po, 5 mg
  Cmax: 1.91 ± 0.699 ng/mL
[1]; rosuvastatin 5 mg with upadacitinib 30 mg once daily versus rosuvastatin alone
  Cmax central value ratio (90%CI): 0.77
[1]; [11]
  AUCinf lower when administered with upadacitinib relative to alone: 33%
  Cmax lower when administered with upadacitinib relative to alone: 23%
Safety monitoring
  Tolerability: generally well tolerated
[2]
  Intrasubject variability in plasma exposures: ≈ 25%

## CC[C@@H]1CN(C(=O)NCC(F)(F)F)C[C@@H]1c1cnc2cnc3[nH]ccc3n12 [upadacitinib]
[1]; upadacitinib 30 mg once daily, rosuvastatin 5 mg
  Effect of upadacitinib on the pharmacokinetics of rosuvastatin: no clinically relevant effect
[3]; human, plasma, oral, 30 mg
  AUC: 585 ± 153 ng·h/mL
  Cmax: 73 ± 23.6 ng/mL
  concentration at 24 h: 5.17 ± 1.56 ng/mL
[3]; part 1, period 2 day 6, upadacitinib 30 mg once daily alone
  CL/F: 54.6 ± 14.4 L/h
[3]; part 1, period 2 day 7, upadacitinib 30 mg once daily + rosuvastatin 5 mg single dose
  CL/F: 55.9 ± 14.7 L/h
[3]; [12]
  Effect of single 5‐mg dose of rosuvastatin on upadacitinib Cmax or AUC: no relevant effect
[4]; human, plasma, oral, 30 mg
  AUC: 547 ± 112 ng·h/mL
  concentration at 24 h: 4.3 ± 1.74 ng/mL
[4]; [13]
  CL/F: 57.2 ± 12.3 L/h
  Cmax: 76.5 ± 16.1 ng/mL
[4]; [14]
  CL/F: 58.4 ± 11.7 L/h
  Cmax: 73.2 ± 17.1 ng/mL
[4]; [12]
  Effect of single 10‐mg dose of atorvastatin on upadacitinib Cmax or AUC: no relevant effect
OATP1B
  Inhibition of OATP1B in vivo: lack of inhibition
BCRP [5]
  Inhibition of BCRP in vivo: lack of inhibition
Safety monitoring
  Tolerability: generally well tolerated
Safety monitoring; during treatment with rosuvastatin and upadacitinib, N = 12
  Patients reporting constipation (grade 1): 1 patient
Safety monitoring; upadacitinib alone or with the statins
  New safety findings: no new safety findings
Upadacitinib 30 mg once daily, atorvastatin 10 mg
  Effect of upadacitinib on the pharmacokinetics of atorvastatin: no clinically relevant effect
CYP1A2
  Effect on CYP1A2 activity: No relevant effects
CYP2C9
  Effect on CYP2C9 activity: No relevant effects
CYP2C19
  Effect on CYP2C19 activity: No relevant effects
CYP2D6
  Effect on CYP2D6 activity: No relevant effects
P‐glycoprotein
  Substrate for P‐glycoprotein: is a substrate
[6]
  Substrate for BCRP: is a substrate
BCRP [7]
  Inhibition of BCRP: not expected to inhibit
[8]
  Inhibition of OATP1B1: not expected to inhibit
[9]; once‐daily dosing of the extended‐release formulation
  Time to steady state: ≤ 4 days
[9]; repeated once‐daily dosing of the extended‐release formulation
  Accumulation in plasma: no significant accumulation

## Cc1ncc2n1-c1ccc(Cl)cc1C(c1ccccc1F)=NC2 [midazolam]
CYP3A
  Decrease in AUC when administered with upadacitinib relative to alone: 26%
  Decrease in Cmax when administered with upadacitinib relative to alone: 26%

## CC(C)c1c(C(=O)Nc2ccccc2)c(-c2ccccc2)c(-c2ccc(F)cc2)n1CC[C@@H](O)C[C@@H](O)CC(=O)O [atorvastatin]
Safety monitoring
  Tolerability: generally well tolerated

## C#C[C@]1(O)CC[C@H]2[C@@H]3CCc4cc(O)ccc4[C@H]3CC[C@@]21C [ethinylestradiol]
[10]
  Effect of upadacitinib on plasma exposures: lack of effect; also recorded: no effect

## CC(C)c1c(C(=O)Nc2ccccc2O)c(-c2ccccc2)c(-c2ccc(F)cc2)n1CC[C@@H](O)C[C@@H](O)CC(=O)O [ortho‐hydroxyatorvastatin]
[15]
  t1/2 (arithmetic mean ± standard deviation): 10.7 ± 2.76 h
  t1/2 (harmonic mean ± pseudo-standard deviation): 10.0 ± 2.60 h
[16]
  t1/2 (arithmetic mean ± standard deviation): 12.9 ± 5.76 h
  t1/2 (harmonic mean ± pseudo-standard deviation): 11.1 ± 3.92 h
[17]
  Ortho‐hydroxyatorvastatin to atorvastatin AUCinf ratio: 1.39 ± 0.499
  Ortho‐hydroxyatorvastatin to atorvastatin AUCt ratio: 1.33 ± 0.492
Atorvastatin 10 mg alone, period 1 day 1, N = 24, median (minimum-maximum)
  tmax: 4.0 (2.0‐8.0) h
Atorvastatin 10 mg single dose + upadacitinib 30 mg once daily, period 2 day 7, N = 24, mean ± SD
  Cmax: 1.54 ± 0.610 ng/mL
Atorvastatin 10 mg single oral dose alone, period 1 day 1, N = 24, mean ± SD
  Cmax: 1.58 ± 0.716 ng/mL

## CC(C)c1nc(NS(C)(=O)=O)nc(-c2ccc(F)cc2)c1/C=C/[C@@H](O)C[C@@H](O)CC(=O)O [N‐desmethyl rosuvastatin]
HMG‐CoA reductase
  Inhibitory activity of HMG‐CoA reductase compared to rosuvastatin: minimal inhibitory activity

## C#C[C@]1(O)CC[C@H]2[C@@H]3CCC4=CC(=O)CC[C@@H]4[C@H]3CC[C@@]21CC [levonorgestrel]
[10]
  Effect of upadacitinib on plasma exposures: lack of effect; also recorded: no effect
